Measured values taken from the NIST ThermoML archive (doi:10.1016/j.jct.2016.10.042).
± gives the expanded uncertainty stated by the source.

What was measured:
[1] = 101 kPa, Liquid, Pycnometric method
[2] = xn = mol fraction of the nth substance listed; details: 101 kPa, Liquid, Pycnometric method, x1 = 1

SMILES | mass density ([1]; 293.15 K) [kg/m3] | mass density ([1]; 298.15 K) [kg/m3] | mass density ([1]; 303.15 K) [kg/m3] | mass density ([1]; 308.15 K) [kg/m3] | mass density ([1]; 313.15 K) [kg/m3] | mass density ([1]; 318.15 K) [kg/m3] | mass density ([2]; 293.15 K) [kg/m3] | mass density ([2]; 298.15 K) [kg/m3] | mass density ([2]; 303.15 K) [kg/m3] | mass density ([2]; 308.15 K) [kg/m3] | mass density ([2]; 313.15 K) [kg/m3] | mass density ([2]; 318.15 K) [kg/m3]
C=CC(=O)OC(C)(C)C [tert-butyl acrylate] | 884.13 ± 1 | 879.66 ± 1 | 875.2 ± 1 | 870.74 ± 1 | 866.28 ± 1 | 861.82 ± 1 |  |  |  |  |  | 
C1CCOC1 [tetrahydrofuran] | 887.01 ± 1 | 882.05 ± 1 | 877.1 ± 1 | 872.14 ± 1 | 867.19 ± 1 | 862.23 ± 1 |  |  |  |  |  | 
C1CCOC1 [tetrahydrofuran] + C=CC(=O)OC |  |  |  |  |  |  | 887.01 ± 1 | 882.05 ± 1 | 877.1 ± 1 | 872.14 ± 1 | 867.19 ± 1 | 862.23 ± 1
C1CCOC1 [tetrahydrofuran] + C=CC(=O)OC(C)(C)C |  |  |  |  |  |  | 887.01 ± 1 | 882.05 ± 1 | 877.1 ± 1 | 872.14 ± 1 | 867.19 ± 1 | 862.23 ± 1
C1CCOC1 [tetrahydrofuran] + C=CC(=O)OCC |  |  |  |  |  |  | 887.01 ± 1 | 882.05 ± 1 | 877.1 ± 1 | 872.14 ± 1 | 867.19 ± 1 | 862.23 ± 1
C1CCOC1 [tetrahydrofuran] + C=CC(=O)OCCCC |  |  |  |  |  |  | 887.01 ± 1 | 882.05 ± 1 | 877.1 ± 1 | 872.14 ± 1 | 867.19 ± 1 | 862.23 ± 1
